Data taken from PMC8187357 (Communications Biology, 2021).
pEC50: −log10 of the molar value. “And” between values parts separate entries of the source, which are not always exact repeats. Equal values may be shown once.

Columns and labels:
[1] = molecular target: T1, CTLA4 (Homo sapiens, UniProt P16410); assay: CTLA4-B7.1 functional assay (IL-2, Jurkat T cells); format: cell-based; details: for IL2: Jurkat + B7.1 + PHA + CTLA-4 200 ng/mL, replicates
T1 construct: Fc (Ig); purchased R & D systems 325-CT
T1 sequence (P16410 with tags, fused parts or gaps limits assumed): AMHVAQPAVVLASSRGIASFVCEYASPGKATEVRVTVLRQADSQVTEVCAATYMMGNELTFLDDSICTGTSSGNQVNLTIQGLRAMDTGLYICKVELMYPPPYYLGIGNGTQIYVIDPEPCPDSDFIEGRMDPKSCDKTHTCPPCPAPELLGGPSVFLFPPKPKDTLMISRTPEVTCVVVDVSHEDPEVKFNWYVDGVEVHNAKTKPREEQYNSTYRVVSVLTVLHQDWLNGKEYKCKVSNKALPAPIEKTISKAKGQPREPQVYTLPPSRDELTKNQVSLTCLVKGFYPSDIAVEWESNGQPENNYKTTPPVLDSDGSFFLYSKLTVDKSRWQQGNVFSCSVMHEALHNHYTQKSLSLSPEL
Description: CA-170 was evaluated for its potential impact on B7.1 mediated immune-inhibitory interaction with CTLA4 by monitoring the rescue of release of IL-2 in the presence of recombinant CTLA4-Ig and B7.1 in T cells stimulated with phytohemagglutinin (PHA). Briefly, Jurkat T cells (0.25 × 10^5 cells/well of a 96-well plate) grown and starved in serum-free RPMI1640 media for 2 h were stimulated with PHA (10 µg/mL) and B7.1 (500 ng/mL) in the presence of recombinant human CTLA4-Ig (200 ng/mL) and different concentrations of CA-170 and cultured for 48 h at 37 °C. After 48 h of cell culture, supernatant was analyzed for IL-2 by ELISA. Anti-CTLA4 antibody and isotypes were used as controls.

[2] = Phase 1, cited from earlier work
[3] = system: Galanin GAL1, GAL2; assay: CEREP 80 panel binding: Galanin; details: 10 µM
Description: (§1) CEREP 80 panel assay was carried out by Eurofins Cerep Panlabs facility at France. A series of binding assays was carried out to understand the off-target toxicity of CA-170. CA-170 was tested at 10 μM test concentration in duplicates. Compound binding was calculated as a % inhibition of the binding of a radioactively labeled ligand specific for each target. In each experiment the respective reference compound was tested concurrently with CA-170, and the data were compared with historical values determined at Eurofins. The experiment was accepted in accordance with Eurofins validation standard operating procedure. The results are expressed as a percent of control specific binding; (measured specific binding / control specific binding) × 100 and as a percent inhibition of control specific binding; 100−(measured specific binding / control specific binding) × 100 obtained in the presence of CA-170. The IC50 values (concentration causing a half-maximal inhibition of control specific binding) and Hill coefficients (nH) were determined by non-linear regression analysis of the competition curves generated with mean replicate values using Hill equation curve fitting.

[4] = Plasma stability, rat
Description: Test compounds were tested for plasma stability (test concentration of 10 μM) as per the protocols reported in publication[20].

[5] = system: MC38 colon carcinoma; assay: Antitumor efficacy in MC38 syngeneic model (C57B6); format: in vivo, mouse; details: MC38 in C57B6 mice, day 14 of dosing
Description: For MC38 syngeneic colon carcinoma subcutaneous model, 0.5 × 10^6 MC38 cells (Source: NCI/NIH, kind gift from Dr. Michael Pollack) were injected subcutaneously to the left flank of the C57B6 mouse (In-house) or SCID Beige mice (Source: Harlan, France) on day 1 and dosing was initiated when average tumor volume reached ~100 mm^3. Animals were randomized based on tumor volumes and treated with either a vehicle control or CA-170 at indicated doses for 14 days. Anti-PD1 antibody (Clone J43 from BioXcel) was dosed intraperitoneally at 100 µg/animal once every week. Treatment efficacy was assessed in terms of the effects of the test substances on the tumor volumes of treated mice relative to vehicle-treated mice. Tumor growth curves of test and control groups using the mean tumor volumes were drawn, percent tumor growth inhibition (%TGI) […].

[6] = molecular target: T2, Vasopressin V1a (Homo sapiens, UniProt P37288); assay: CEREP 80 panel binding: Vasopressin; details: read-out: % Inhibition of Control Specific Binding
T2 construct: Eurofins Cerep Panlabs (contract assay)
T2 sequence (P37288 whole entry): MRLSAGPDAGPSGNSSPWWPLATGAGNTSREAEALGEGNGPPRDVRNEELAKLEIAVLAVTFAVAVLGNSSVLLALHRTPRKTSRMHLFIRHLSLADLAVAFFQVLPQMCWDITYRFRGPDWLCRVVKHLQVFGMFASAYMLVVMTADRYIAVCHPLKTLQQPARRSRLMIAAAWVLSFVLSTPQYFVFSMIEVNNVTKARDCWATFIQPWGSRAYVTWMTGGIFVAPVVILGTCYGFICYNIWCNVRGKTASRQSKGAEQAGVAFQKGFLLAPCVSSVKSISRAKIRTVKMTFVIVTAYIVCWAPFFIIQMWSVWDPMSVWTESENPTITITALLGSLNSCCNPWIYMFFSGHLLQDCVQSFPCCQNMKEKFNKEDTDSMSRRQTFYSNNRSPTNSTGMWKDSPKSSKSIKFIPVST
Description: as §1

[7] = system: B7.1-CD28 co-stimulatory pathway; assay: CD28-B7.1 functional assay (IL-2, Jurkat T cells); format: cell-based, human; details: for IL2: Jurkat + PHA 5 µg/mL + B7.1 1 µg/mL, replicates
Description: Impact of CA-170 on immunostimulatory interaction was examined in a Jurkat T-cell-based assay in which the ability of B7-1 to induce production of IL-2 was monitored upon stimulation with PHA. Briefly, Jurkat T cells (0.25 × 10^5 cells/well of a 96-well plate) grown and starved in serum-free RPMI1640 media for 2 h were stimulated with PHA (5 µg/mL) and B7.1 (1.0 µg/mL) and different concentrations of CA-170 and cultured for 48 h at 37 °C. After indicated time of incubation, culture supernatant was analyzed for IL-2 by ELISA. Anti-CD28 antibody and isotypes were used as controls.

[8] = molecular target: T3, PD-L2 (Mus musculus, UniProt Q9WUL5); assay: Rescue of PD-L2 mediated inhibition of proliferation, mouse splenocytes; format: cell-based; details: mean ± S.D.; n=2; read-out: Mouse Splenocyte Proliferation Rescue EC50 PD-L2
T3 construct: purchased R&D Systems 1022-PL-100
T3 sequence (Q9WUL5 with tags, fused parts or gaps limits assumed): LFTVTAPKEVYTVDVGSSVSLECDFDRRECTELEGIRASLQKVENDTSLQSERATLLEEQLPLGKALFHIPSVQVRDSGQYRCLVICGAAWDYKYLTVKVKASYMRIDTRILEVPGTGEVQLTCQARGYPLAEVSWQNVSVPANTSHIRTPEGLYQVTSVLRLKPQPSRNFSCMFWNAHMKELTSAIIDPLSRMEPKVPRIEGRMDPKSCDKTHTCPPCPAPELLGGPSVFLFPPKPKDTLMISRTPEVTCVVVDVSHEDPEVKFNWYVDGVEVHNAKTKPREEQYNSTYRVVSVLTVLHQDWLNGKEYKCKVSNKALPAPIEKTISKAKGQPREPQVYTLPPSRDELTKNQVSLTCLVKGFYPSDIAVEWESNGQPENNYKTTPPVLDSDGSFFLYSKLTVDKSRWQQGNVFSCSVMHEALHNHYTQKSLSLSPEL
Description: For all in vitro assays, test agent stock was prepared in water and diluted further in the assay media to achieve test concentrations. Each experimental condition was carried out in triplicates. Percent rescue for a given test compound concentration was calculated by normalizing individual percent test agent proliferation or IFN-γ release values to percent anti-CD3 and anti-CD28 antibodies stimulated proliferation or IFN-γ release.

[9] = Jurkat cells stimulated with PHA + human B7-1

## C[C@@H](O)[C@H](NC(=O)N[C@@H](CC(N)=O)c1nc([C@@H](N)CO)no1)C(=O)O [CA-170]
[1]; 10 nM
  IL2: 100.732 pg/mL and 119.610 pg/mL and 100.195 pg/mL
[1]; 100 nM
  IL2: 131.122 pg/mL and 123.634 pg/mL and 97.951 pg/mL
[1]; 1000 nM
  IL2: 139.927 pg/mL and 131.366 pg/mL and 108.171 pg/mL
[1]; [9]
  rescue of IL-2 release inhibited by recombinant hCTLA-4 (in words): did not rescue the release of IL-2
[2]; circulating CD8+ and CD4+ T cells expressing CD69, Granzyme B, OX-40
  peripheral T-cell activation (in words): Evidence of peripheral T-cell activation
[2]; oral 50 to 1200 mg
  T1/2: 4 to 9.5 h
  safety profile (in words): acceptable safety profile
[3]
  % Inhibition of Control Specific Binding: ≤ 12%
[4]
  remaining at 4 h, 10 μM: > 95%
[5]; CA-170 10 mg/kg PO daily, J43 100 µg/animal/week, 10 mg/kg
  Individual tumor volumes: 391.77 mm3 and 388.53 mm3 and 554.94 mm3 and 536.22 mm3 and 252.8 mm3 and 593.87 mm3 and 294.73 mm3 and 377.95 mm3 and 460.46 mm3 and 205.38 mm3
[5]; CA-170 10 mg/kg/day orally, PD-1 antibody 100 µg/animal/week
  tumor growth inhibition: 43%
[6]
  inhibition at 10 µM: 1%
[7]; 10 nM
  IL2: 70.45 pg/mL and 63.796 pg/mL and 63.436 pg/mL
[7]; 100 nM
  IL2: 83.976 pg/mL and 80.412 pg/mL and 77.892 pg/mL
[7]; 1000 nM
  IL2: 83.364 pg/mL and 84.022 pg/mL and 79.85 pg/mL
[7]; [9]
  inhibition of B7-1-mediated IL-2 secretion (in words): did not inhibit IL-2 secretion
[8]
  pEC50: 7.40
